Data published in the supplement of paper PMC10307832.

Key:
Assay in all cases: relative viability (nuclei count vs DMSO), 5 days (fraction); higher = more cells survive
[1] = compound: Cc1ccc(NC(=O)c2ccc(CN3CCN(C)CC3)cc2)cc1Nc1nc(-c2cccnc2)cs1 [Masitinib] + Cc1nc(NC(=O)N2CCC[C@H]2C(N)=O)sc1-c1ccnc(C(C)(C)C(F)(F)F)c1 [Alpelisib] (partner 2 µM)
Procedure, shortened: (§1)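 Nuclei were stained with Hoechst during a one-step fixation (final 0.05% Triton X-100, 1% formaldehyde, 1 ug/ml Hoechst) carried out 5 days after dosing, then counted on 4× images. The cells, lung cancer lines in 1536-well plates, had been dosed by pin tool the day after seeding with one drug alone or a fixed anchor-drug dose plus five library-drug doses (not always all listed) in √10 steps. Relative viability is the nuclei count in treated wells divided by that in vehicle wells, and each value is the median of duplicate plates.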

[2] = compound: CC1=CC(=CC=C1)NC2=NC(=CS2)C3=CC=NC=C3 + CS(=O)(=O)CCNCc1ccc(-c2ccc3ncnc(Nc4ccc(OCc5cccc(F)c5)c(Cl)c4)c3c2)o1 [Lapatinib] (partner 2 µM)
Procedure, shortened: as §1

[3] = compound: Cc1ccc(NC(=O)c2ccc(CN3CCN(C)CC3)cc2)cc1Nc1nc(-c2cccnc2)cs1 [Masitinib] + CS(=O)(=O)CCNCc1ccc(-c2ccc3ncnc(Nc4ccc(OCc5cccc(F)c5)c(Cl)c4)c3c2)o1 [Lapatinib] (partner 2 µM)
Procedure, shortened: as §1

[4] = compound: CC1=CC(=CC=C1)NC2=NC(=CS2)C3=CC=NC=C3 + CS(=O)(=O)N1CCN(Cc2cc3nc(-c4cccc5[nH]ncc45)nc(N4CCOCC4)c3s2)CC1 [Pictilisib] (partner 1 µM)
Procedure, shortened: as §1

Cell Line	relative viability ([1]; first compound 0.01 µM)	relative viability ([1]; first compound 0.03162 µM)	relative viability ([1]; first compound 0.1 µM)	relative viability ([1]; first compound 0.3162 µM)	relative viability ([1]; first compound 1 µM)	relative viability ([2]; first compound 0.08 µM)	relative viability ([2]; first compound 0.253 µM)	relative viability ([2]; first compound 0.8 µM)	relative viability ([2]; first compound 2.53 µM)	relative viability ([2]; first compound 8 µM)	relative viability ([3]; first compound 0.01 µM)	relative viability ([3]; first compound 0.03162 µM)	relative viability ([3]; first compound 0.1 µM)	relative viability ([3]; first compound 0.3162 µM)	relative viability ([3]; first compound 1 µM)	relative viability ([4]; first compound 0.08 µM)	relative viability ([4]; first compound 0.253 µM)	relative viability ([4]; first compound 0.8 µM)	relative viability ([4]; first compound 2.53 µM)	relative viability ([4]; first compound 8 µM)
NCI-H1734	0.616	0.715	0.764	0.383	0.658	0.896	1.02	1.04	0.932	0.928	0.915	0.956	1.02	0.85	1	0.479	0.499	0.494	0.588	0.43
LCLC-103H	0.711	0.913	0.917	0.992	0.971											0.402	0.54	0.551	0.572	0.546
RERF-LC-KJ	0.865	0.762	0.917	0.842	0.738	0.73	0.766	0.693	0.741	0.728	0.94	0.705	0.83	0.73	0.719	0.509	0.49	0.541	0.472	0.497
BEN	1.21	0.901	1.3	1.34	0.945	0.733	0.62	0.498	0.669	0.741	0.774	0.675	0.928	0.54	0.65	0.543	0.528	0.585	0.446	0.543
NCI-H1703	0.226	0.255	0.228	0.171	0.197	0.894	1.21	1.19	1.36	1.07	0.764	0.857	0.436	0.479	0.256	0.229	0.243	0.238	0.282	0.262
LC-2-ad	0.866	0.822	0.843	0.815	0.844	0.953	0.86	0.948	0.853	0.788	0.762	1.02	0.874	0.994	0.962	0.365	0.366	0.478	0.369	0.436
SW 1573	0.89	0.768	0.873	0.831	0.66	1.13	0.977	1.15	1.38	1.08	0.986	1.17	1.2	0.73	0.987	0.473	0.454	0.521	0.57	0.488
ChaGo-K-1																0.697	0.447	0.691	0.36	0.639
COR-L 105	1	1.02	1.05	0.879	1.15	0.289	0.41	0.382	0.408	0.389	0.298	0.379	0.4	0.36	0.312	0.322	0.427	0.374	0.413	0.393
NCI-H441	0.675	0.822	0.873	0.703	0.653											0.44	0.529	0.476	0.489	0.543
